Test results as given in ChEMBL document CHEMBL3352420, “Discovery of 2-pyridylureas as glucokinase activators” (J Med Chem, 2014).

Columns and labels:
[1] = target: T1, Hexokinase-4 (Homo sapiens, UniProt P35557); assay: Activation of purified human glucokinase isoform 3 (13 to 466 aa) using 5 mM glucose by spectrophotometry in presence of NAD+ and glucose 6-phosphate dehydrogenase in presence of 4% HSA
T1 sequence (P35557 whole entry): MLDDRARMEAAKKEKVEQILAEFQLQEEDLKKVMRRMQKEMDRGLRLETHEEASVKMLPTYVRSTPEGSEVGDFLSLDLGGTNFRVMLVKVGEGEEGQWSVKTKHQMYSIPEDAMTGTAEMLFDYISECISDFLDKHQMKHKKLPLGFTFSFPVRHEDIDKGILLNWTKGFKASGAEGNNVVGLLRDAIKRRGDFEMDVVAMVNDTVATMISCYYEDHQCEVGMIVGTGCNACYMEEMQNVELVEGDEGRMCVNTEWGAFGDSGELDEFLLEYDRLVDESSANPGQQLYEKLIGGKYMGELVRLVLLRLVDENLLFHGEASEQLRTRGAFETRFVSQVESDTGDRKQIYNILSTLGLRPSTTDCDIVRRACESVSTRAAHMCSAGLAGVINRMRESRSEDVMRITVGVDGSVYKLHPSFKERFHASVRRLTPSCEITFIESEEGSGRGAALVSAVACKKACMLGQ

[2] = target: T1, Hexokinase-4; assay: Activation of purified human glucokinase isoform 3 (13 to 466 aa) using 5 mM glucose by spectrophotometry in presence of NAD+ and glucose 6-phosphate dehydrogenase
[3] = Extraction ratio in mouse liver microsomes at 1 uM up to 20 mins by LC-MS/MS analysis; assay type: ADME; settings: read-out: ERH
[4] = Extraction ratio in human liver microsomes at 1 uM up to 20 mins by LC-MS/MS analysis; assay type: ADME; settings: read-out: ERH

Structure (SMILES)	EC50 ([1]; read-out: EC50) [nM]	EC50 [2] [nM]	hepatic extraction ratio at 20 min, 1 µM [3]	hepatic extraction ratio at 20 min, 1 µM [4]	EC50 [1]
CCn1nccc1Oc1cc(Sc2ccccn2)cnc1NC(=O)NC	472	319	0.83	0.45	
CCc1ncccc1Oc1cc(Sc2ccccn2)cnc1NC(=O)NCCO	2840	2120			
CCc1ncccc1Oc1cc(Sc2ccccn2)cnc1NC(=O)NCc1ccccn1	3990	1620			
CCc1ncccc1Oc1cc(Sc2ccccn2)cnc1NC(=O)NCc1ccncc1	1160	952			
CNC(=O)Nc1ncc(SCCCO)cc1Oc1cccnc1C	714	550	0.19	0.15	
CCOC(=O)Nc1ncc(Sc2ccccn2)cc1Oc1cccnc1CC		> 50000			Not Active
CCc1ncccc1Oc1cc(Sc2ccccn2)cnc1NC(=O)NC(C)C		> 50000			Not Active
CNC(=O)Nc1ncc(SC2CCOCC2)cc1Oc1cccnc1C	233	336	0.3	0.47	

Further molecules by falling EC50 [2], results first:

EC50 ([1]; read-out: EC50) [nM]	EC50 [2] [nM]	hepatic extraction ratio at 20 min, 1 µM [3]	hepatic extraction ratio at 20 min, 1 µM [4]	EC50 [1]	Structure (SMILES)
436	317	0.43	0.48		CNC(=O)Nc1ncc(SCC2CCOCC2)cc1Oc1cccnc1C
1850	262	0.68	0.37		CNC(=O)Nc1ncc(Sc2ccccn2)cc1Oc1cccnc1C
1530	172				CCc1ncccc1Oc1cc(Sc2ccccn2)cnc1NC(=O)NCc1ccc(O)cc1
550	132	0.9	0.95		CNC(=O)Nc1ncc(SC2CCN(C(=O)OC(C)(C)C)CC2)cc1Oc1cccnc1C
231	88	0.85	0.75		CCc1ncccc1Oc1cc(Sc2ccccn2)cnc1NC(=O)NC
